Measurements from US8383637B2, “2-amino-quinazoline derivatives useful as inhibitors of β-secretase (BACE)” (Jansssen Pharmaceutica N.V., priority 2004, dated 2013).
Values joined by “and” are separate entries in the source; they are usually repeats but may differ in a detail not shown here. Equal entries are not always repeated.

Experiments:
[1] = molecular target: T1, β-secretase(BACE) (Homo sapiens, UniProt P56817); assay: BACE Assay-2 (FS1 substrate, IC50 and Ki); format: biochemical; settings: procedure of Example 159, FS1 substrate; for Ki: read-out: Ki μM (159)
T1 construct: purchased Panvera

[2] = molecular target: T1, β-secretase(BACE); assay: BACE FS1% Inhibition Assay; format: biochemical; settings: FS1 substrate; for inhibition at 3 µM: 3 μM test compound; for inhibition at 0.3 µM: 0.3 μM test compound; for inhibition at 1 µM: 1 μM test compound
Method in brief: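 Human BACE (4 μg/mL working solution) preincubated 20 min at room temperature with compound, then FS1 substrate (300 μg/mL working solution) added and incubated 1 h at room temperature. Percent inhibition calculated at each compound concentration against blank and vehicle controls.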

[3] = molecular target: human BACE-1 (Homo sapiens, UniProt P56817); assay: BACE Assay (CEREP); format: biochemical; settings: recombinant enzyme, 60 min at 37° C., pH 4.5; for inhibition at 0.3 µM: test compound 0.3 μM
Method: The test compound, reference compound or water (control) were added to a buffer containing 0.09 M sodium acetate (pH 4.5) and 0.25 μg BACE-1. Compound interference with the fluorimetric detection method due to autofluorescence was then checked by measurements at the wavelengths defined to evaluate the enzyme activity. […] For control basal measurement, the substrate was omitted from the reaction mixture. […] The standard inhibitory reference compound was OM99-2, which was tested in each experiment at several concentrations to obtain an inhibition curve from which its IC50 value was calculated.

[4] = molecular target: T1, β-secretase(BACE); assay: BACE Assay-1 (MCA-substrate, IC50); format: biochemical; settings: procedure of Example 158; read-out: IC50 μM (158)
Method in brief: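 Human BACE (work solution 10 μg/mL) with MCA-peptide substrate (stock 2.0 mg/mL) in 0.05 M citrate buffer, pH 5.0, with PEG8000. Fluorescence read at T0 and T60; compounds tested at multiple concentrations and IC50 calculated from these readings.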

[5] = molecular target: T1, β-secretase(BACE); assay: BACE % Inhibition Assay ((Aedens)-[…]-(Dabcyl K-amide) substrate); format: biochemical; settings: % error ±10%; for inhibition at 3 µM / inhibition at 10 µM: read-out: % Inhibition; for inhibition at 10 µM: 10 μM test compound; for inhibition at 0.3 µM: 0.3 μM test compound; for inhibition at 1 µM: 1 μM test compound
Method: The substrate stock solution was prepared in DMSO as a 10 mg/mL solution. The substrate working solution was prepared by diluting the 10 mg/mL stock solution with substrate assay buffer to a final concentration of 300 μg/mL. The β-secretase (BACE) working solution was prepared by diluting a 0.83 mg/mL BACE stock solution with enzyme assay buffer to a final concentration of 4 μg/mL.
Test compounds were dissolved in DMSO to 10 mM.
The screening procedure for this assay was as follows: 15 μL of BACE working solution was pipetted into each well of a 96-well plate. To each well was then pipetted 2 μL of test compound at the selected concentration. Test compound and BACE were then mixed with a pipettor and incubated for 20 min at room temperature. To each well was then added 10 μL of the substrate working solution. The plates were then incubated for 1 hour at room temperature.
The procedure for the blank was as follows. 15 μL of assay buffer was pipetted into each well to be used as a blank control. To each well was then added 2 μL of vehicle and 10 μL of substrate working solution. The plates were then incubated for 1 hour at room temperature.
The procedure for the positive control was as follows: 15 μl of BACE working solution was pipetted into each well to be used as a positive control. To each well was then pipetted 2 μL of vehicle. Vehicle and BACE were then mixed with a pipettor and incubated for 20 min at room temperature. To each well was then added 10 μL of the substrate working solution. The plates were then incubated for 1 hour at room temperature.
For test compounds, % inhibition was determined at each concentration as follows: […]

[6] = read-out: % Inhibition (FS) 3 μM
[7] = read-out: % Inhibition (FS) 0.3 μM
[8] = read-out: % Inhibition (FS) 1 μM

Chain of human BACE-1 (P56817 46-501): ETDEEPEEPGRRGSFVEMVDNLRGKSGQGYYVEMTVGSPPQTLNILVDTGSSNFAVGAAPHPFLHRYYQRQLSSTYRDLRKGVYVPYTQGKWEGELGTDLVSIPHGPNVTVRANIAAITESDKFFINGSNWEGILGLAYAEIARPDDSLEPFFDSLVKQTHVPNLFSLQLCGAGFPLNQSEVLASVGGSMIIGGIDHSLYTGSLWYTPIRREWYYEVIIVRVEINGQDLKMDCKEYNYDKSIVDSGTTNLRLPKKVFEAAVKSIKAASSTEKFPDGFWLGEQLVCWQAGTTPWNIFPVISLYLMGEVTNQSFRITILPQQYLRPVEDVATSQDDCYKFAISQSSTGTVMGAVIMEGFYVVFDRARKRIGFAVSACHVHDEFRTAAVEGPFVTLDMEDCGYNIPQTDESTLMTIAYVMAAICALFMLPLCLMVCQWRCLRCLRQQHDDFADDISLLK
T1 sequence (P56817 46-501): as above

Ki [1] | IC50 [3] [nM] | IC50 [1] [µM] | IC50 [4] [µM] | inhibition at 3 µM ([5]; 3 μM test compound) [%] | inhibition at 10 µM [5] [%] | Structure (SMILES) | other results
0.61 µM | > 1000 |  |  |  |  | NC1=Nc2ccc(Oc3ccccc3)cc2CN1CCNC(=O)c1ccccc1 [Compound 154] | inhibition at 3 µM [2, 6]: 56%; inhibition at 10 µM ([2]; 10 μM test compound, read-out: % Inhibition (FS) 10 μM): 79%
 | 74 |  |  |  |  | NC1=Nc2ccc(Oc3ccccc3)cc2CN1[C@@H](CCC(=O)N(CCO[C@@H]1O[C@H](CO)[C@@H](O)[C@H](O)[C@H]1O)C1CCCCC1)C1CCCCC1 [Compound 798, 4-(2-Amino-6-phenoxy-4H-quinazolin-3-yl)-4S,N-dicyclohexyl-N-[2R-(3R,4S,5S-trihydroxy-6R-hydroxymethyl-tetrahydro-pyran-2-yloxy)-ethyl]-butyramide] | inhibition at 0.3 µM [3]: 95%
0.4 µM |  | 1.24 | 0.053 | 75 | 96 | CN(C(=O)c1cccc(CN2Cc3cc(Oc4cccc(NS(=O)(=O)c5ccccc5)c4)ccc3N=C2N)c1)C1CCCCC1 [Compound 110] | inhibition at 0.3 µM [2, 7]: < 30%; inhibition at 1 µM [2, 8]: 30%; inhibition at 3 µM [2, 6]: 84%
 | 93 |  |  |  |  | NC1=Nc2ccc(Oc3ccccc3)cc2CN1[C@@H](CCC(=O)N(Cc1nc[nH]n1)C1CCCCC1)C1CCCCC1 [Compound 790] | inhibition at 0.3 µM [3]: 98%
 | 78 |  |  |  |  | NC1=Nc2ccc(Oc3ccccc3)cc2CN1[C@@H](CCC(=O)N(Cc1ccncc1)C1CCCCC1)C1CCCCC1 [Compound 789] | inhibition at 0.3 µM ([2]; read-out: % Inhibition (FS)): 80%; inhibition at 1 µM ([2]; read-out: % Inhibition (FS)): 99%; inhibition at 3 µM ([2]; read-out: % Inhibition (FS)): 106%; inhibition at 0.3 µM [3]: 94%
 | 150 |  |  |  |  | NC1=Nc2ccc(Oc3ccccc3)cc2CN1[C@@H](CCC(=O)N1C2CCCCC2C[C@H]1C(=O)O)C1CCCCC1 (stereo partly drawn) [Compound 795, 1-[4-(2-Amino-6-phenoxy-4H-quinazolin-3-yl)-4S-cyclohexyl-butyryl]-octahydro-indole-2S-carboxylic acid] | inhibition at 0.3 µM [3]: 98%
0.16 µM |  |  | 0.093 | 120 |  | NC1=Nc2ccc(Oc3ccccc3)cc2CN1C(CCNC(=O)C1CCCC1)C1CCCCC1 (stereo not shown) [Compound 392] | inhibition at 0.3 µM [5]: 75%; inhibition at 1 µM [5]: 116%
0.81 µM |  | 3.9 | 0.68 | 44 | 71 | CCCN1Cc2cc(Oc3cccc(NC(=O)OCc4ccccc4)c3)ccc2N=C1N [Compound 67] | 
0.074 µM |  |  | 0.053 | 120 |  | NC1=Nc2ccc(Oc3ccccc3)cc2CN1C(CNC(=O)c1ccccc1)C1CCCCC1 (stereo not shown) [Compound 319] | inhibition at 0.3 µM [5]: 61%; inhibition at 1 µM [5]: 95%
 |  |  |  |  |  | CN(C(=O)CCN1Cc2cc(C(=O)c3ccccc3)ccc2N=C1N)C1CCCCC1 | melting point: 198.1 °C
0.84 µM |  | 2.8 | 0.8 | 56 | 90 | CCCN1Cc2cc(Oc3cccc(N(C(=O)OCc4ccccc4)C4CCCCC4)c3)ccc2N=C1N [Compound 49] | 
 | 160 |  |  |  |  | NC1=Nc2ccc(Oc3ccccc3)cc2CN1[C@@H](CCC(=O)N(Cc1ncc[nH]1)C1CCCCC1)C1CCCCC1 [Compound 788] | inhibition at 0.3 µM ([2]; read-out: % Inhibition (FS)): 110%; inhibition at 1 µM ([2]; read-out: % Inhibition (FS)): 114%; inhibition at 3 µM ([2]; read-out: % Inhibition (FS)): 118%; inhibition at 0.3 µM [3]: 97%
2.3 µM |  | 20 | 11 | 32 | 48 | NC1=Nc2ccc(C(=O)c3ccccc3)cc2CN1CCCCNC(=O)C1CCCCC1 [Compound 30] | 
1.2 µM |  | 13 | 2.2 | < 30 | 56 | CN(Cc1cccc2ccccc12)C(=O)CCCCN1Cc2cc(C(=O)c3ccccc3)ccc2N=C1N [Compound 51] | 
0.1 µM |  |  | 0.054 | 115 |  | NC1=Nc2ccc(Oc3ccccc3)cc2CN1C(CCNC(=O)C1CCCCC1)C1CCCCC1 (stereo not shown) [Compound 391] | inhibition at 0.3 µM [5]: 35%; inhibition at 1 µM [5]: 93%
1.1 µM |  | 2.3 | 0.2 | 76 | 99 | NC1=Nc2ccc(Oc3ccccc3)cc2CN1Cc1cccc(C(=O)N(C2CCCCC2)C2CCCCC2)c1 [Compound 98] | inhibition at 0.3 µM [2, 7]: 49%; inhibition at 1 µM [2, 8]: 93%; inhibition at 3 µM [2, 6]: 114%
0.082 µM and 0.067 µM |  |  | 0.1 |  | 94 | NC1=Nc2ccc(Oc3ccccc3)cc2CN1CCNC(=O)C1CCCCC1 [Compound 111, Cyclohexanecarboxylic acid [2-(2-amino-6-phenoxy-4H-quinazolin-3-yl)-ethyl]-amide] | inhibition at 0.3 µM [5]: 63%; inhibition at 1 µM [5]: 96%; % Inhibition ([5]; 3 μM test compound, 3 µM): 84% and 115%
0.53 µM |  | 11 | 1 | < 30 | 34 | CN(CCc1ccccc1)C(=O)CCCCN1Cc2cc(C(=O)c3ccccc3)ccc2N=C1N [Compound 50] | 
0.19 µM |  |  | 0.082 | 119 |  | NC1=Nc2ccc(Oc3ccccc3)cc2CN1C(CNC(=O)C1CCCCC1)c1ccccc1 (stereo not shown) [Compound 342] | inhibition at 0.3 µM [5]: 50%; inhibition at 1 µM [5]: 93%
0.34 µM |  | 2.1 | 0.48 | 68 | 83 | CN(C(=O)CCN1Cc2cc(Oc3ccccc3)ccc2N=C1N)C1CCCCC1 [Compound 20, 3-(2-Amino-6-phenoxy-4H-quinazolin-3-yl)-N-cyclohexyl-N-methyl-propionamide] | 
0.23 µM |  | 0.44 | 0.2 | 75 | 87 | CCCN1Cc2cc(Oc3cccc(NS(=O)(=O)c4ccccc4)c3)ccc2N=C1N [Compound 61] | 
1.1 µM |  | 10 | 4.9 | 47 | 76 | CN(CCN1Cc2cc(C(=O)c3ccccc3)ccc2N=C1N)C(=O)C1CCCCC1 [Compound 23] | 
 | 120 |  |  |  |  | CC(=O)OCC1OC(OCCN(C(=O)CCC(C2CCCCC2)N2Cc3cc(Oc4ccccc4)ccc3N=C2N)C2CCCCC2)C(OC(C)=O)C(OC(C)=O)C1OC(C)=O (stereo not shown) [Compound 797] | inhibition at 0.3 µM [3]: 95%

Structure (SMILES) | Ki [1] | IC50 [3] [nM] | IC50 [1] [µM] | IC50 [4] [µM] | inhibition at 3 µM ([5]; 3 μM test compound) [%] | inhibition at 10 µM [5] [%] | other results
NC1=Nc2ccc(Oc3ccccc3)cc2CN1[C@@H](CCC(=O)N(Cc1cnc[nH]1)C1CCCCC1)C1CCCCC1 [Compound 796] |  | 190 |  |  |  |  | 
